Laboratory results as given in patent US20090036544A1, “METHODS AND COMPOSITIONS FOR INHIBITING THE PROLIFERATION OF PROSTATE CANCER CELLS” (priority 2001, published 2009).

Columns and labels:
c-jun = assay: Expression of c-jun protein after POH treatment; assay type: cell-based; conditions: normalized data, FIG. 6
Procedure: In order to ascertain how androgen receptor function was being inhibited by POH at levels below 1 μM, c-jun was examined. […] The graph depicts the normalized data. This experiment was repeated twice and representative data is shown.

androgen receptor [1] = assay: Western blot analysis of androgen receptor protein in LNCaP cells; assay type: cell-based, human; conditions: POH until a concentration of 1 μM is reached, 1 nM Mib, 24 hrs
Procedure: LNCaP cells were treated with the indicated concentrations of POH in the presence of 1 nM Mib for 24 hrs. Cells were then harvested, and whole-cell lysates and nuclear extracts were prepared as described (Mitchell et al., 1999, Cancer Res., 59:5892-5). Western blot analysis was performed according to the protocol described (Id). A mouse antibody against the human androgen receptor (1:1000 or 1:2000 dilution) (Pharmingen, San Diego, Calif.) or human tubulin (1:10,000 dilution) (Santa Cruz, Santa Cruz, Calif.) was used as the primary antibody. Ponceau S staining was used for monitoring protein loading and transfer efficiency (Id).

[2] = system: androgen receptor promoter; assay: Luciferase reporter assay with androgen receptor promoter in LNCaP cells; assay type: cell-based, human
Text: (§1) The 6 Kb PSA promoter and the androgen receptor promoter constructs (pGL3 SV40, pGL3 SV40-3 ARE, pGL3 or PSA promoter/pGL3) were described previously (Id). To make an hk2 androgen responsive element (hk2 ARE) construct, a DNA fragment containing three copies of hk2 ARE (5′-[…]-3′ (SEQ ID NO:1)) was synthesized by the Mayo Molecular Core Facility. The synthesized fragment, including SacI and XhoI restriction enzyme sites at the 5′ and 3′-end, respectively, was digested with SacI and XhoI according to manufacturer's instructions and inserted into a pre-cut pGL3-Promoter vector (Promega). The fidelity of this construct was confirmed by DNA sequencing.
(§2) LNCaP cells in duplicate plates were co-transfected with a CMV-β galactosidase (β-gal) expression vector (0.3 μg/plate) and one of the following: a pGL3-Basic luciferase vector (Promega) containing the PSA promoter (nucleotides 1-5836 of GenBank Accession No. U37672), a pGL3-Promoter luciferase vector (Promega) containing three copies of hk2 ARE, a PGL3 vector or PSA promoter/PGL3 vector. Transfections were performed using a liposome method with dimethyldioctadecyl-ammonium bromide (Sigma) and L-lecithin (Sigma) (4:10). Cells were then treated with POH in the presence or absence of 1 nM Mib for 24 hrs. Cell extracts were prepared and used for luciferase and β-gal assays (Promega). […]

androgen receptor [3] = assay: Transient transfection luciferase reporter assay, PSA promoter, in LNCaP cells; assay type: cell-based, human; conditions: 1 nM Mib, 24 hrs, FIG. 3A
Text: as §1, §2

PSA = PSA quantification in spent media of LNCaP cells (Tandem-E PSA kit); assay type: cell-based, human; conditions: 1 nM Mib, five days, normalized to MTS; FIG. 2A
Procedure: (§3) A human prostate cancer cell line, LNCaP (American Type Culture Collection (ATCC), Manassas, Va.), was grown in RPMI 1640 medium (Mediatech, Herndon, Va.) supplemented with 5% fetal bovine serum (FBS) and 5% CO2 at 37° C. until reaching approximately 50-70% confluence. The media were changed to serum-free RPMI 1640 at 24 hrs prior to performing experiments to deplete undesired steroids. Cells were then treated with 5% charcoal-stripped FBS RPMI 1640 containing POH (all from Sigma (St. Louis, Mo.), dissolved in DMSO) at indicated concentrations with or without 1 nM of mibolerone (Mib) (from New England Nuclear (St. Louis, Mo.), dissolved in ethanol), a non-metabolizable synthetic androgen. Equivalent amounts of solvent were added to control cells.
(§4) LNCaP cells were seeded at 4×10^4/well in 24-well dishes and treated with POH at indicated concentrations in the presence of 1 nM Mib. Five days later, cell proliferation was measured using an MTS assay kit (Promega, Madison, Wis.), and PSA and hK2 levels in spent media were determined by the Tandem-E PSA kit (Hybritech Inc., San Diego, Calif.) or Mayo's hK2 assay (Zhang et al., 1999, Endocrin., 140:1665-71). Protein levels of PSA and hK2 were normalized to the MTS measurements.

LNCaP cells = assay: Cell proliferation assay (MTS) in LNCaP cells; assay type: cell-based, human; conditions: five days
Procedure: as §3, §4

hK2 = hK2 quantification in spent media of LNCaP cells (Mayo's hK2 assay); assay type: cell-based, human; conditions: 1 nM Mib, five days, normalized to MTS; FIG. 2B
Procedure: as §3, §4

androgen receptor [4] = assay: Transient transfection luciferase reporter assay, 3 copies of hK2 ARE, in LNCaP cells; assay type: cell-based, human; conditions: minimum SV40 promoter and 3 copies of hK2 ARE, 1 nM Mib, 24 hrs, FIG. 3B
Text: as §1, §2

Compound	level of c-jun (c-jun)	androgen-enhanced androgen receptor protein levels (androgen receptor [1])	androgen receptor promoter activity ([2]; POH at 1 μM)	androgen receptor promoter activity ([2]; POH below 1 μM)	androgenic inducibility of the PSA promoter (luciferase reporter) (androgen receptor [3])	accumulation of PSA protein in LNCaP cells stimulated by androgens (PSA)	proliferation of LNCaP cells (LNCaP cells; POH in the presence of 1 nM Mib, p<0.05, FIG. 1)	accumulation of hK2 protein in LNCaP cells stimulated by androgens (hK2)	ARE-regulated luciferase activity (androgen receptor [4])	LNCaP cell proliferation (LNCaP cells; presence of Mib (1 nM), FIG. 1)
C=C(C)[C@@H]1CC=C(CO)CC1 [POH, Perillyl alcohol]	up to 3.5 times the control levels	not affected	drastically reduced	not affected	significantly reduced	inhibited	significantly inhibited	inhibited	inhibited	–
C[C@@H]1CC2=CC(=O)CC[C@@H]2[C@H]2CC[C@@]3(C)[C@@H](CC[C@]3(C)O)[C@@H]21 [Mib, mibolerone]	–	–	–	–	–	–	–	–	–	significantly increased
